Among the data in patent publication US20090285773A1, “Hepatitis C Virus Inhibitors” (Bristol-Myers Squibb Company, priority 2008, published 2009) are IC50 values, retold here.

The structures appear in SMILES notation.

In assay [1] the target is HCV NS3/4A protease complex, BMS strain (genotype 1a) (UniProt P27958, species not given/STRAIN_BMS). The assay can be described thus: FRET peptide assay, HCV NS3/4A protease complex, BMS strain. In kind it is biochemical. The conditions noted are these: read-out: IC50 against the NS3/4A BMS strain in the enzyme assay. From the text: HCV NS3 protease complexes, derived from the BMS strain, H77 strain or J4L6S strain, were generated, as described below. These purified recombinant proteins were generated for use in a homogeneous assay (see below) to provide an indication of how effective compounds of the present disclosure would be in inhibiting HCV NS3 proteolytic activity.
HCV NS3/4A protease complex, BMS strain (genotype 1a), sequence (P27958 1027-1657, stated change not applied, one chain of several): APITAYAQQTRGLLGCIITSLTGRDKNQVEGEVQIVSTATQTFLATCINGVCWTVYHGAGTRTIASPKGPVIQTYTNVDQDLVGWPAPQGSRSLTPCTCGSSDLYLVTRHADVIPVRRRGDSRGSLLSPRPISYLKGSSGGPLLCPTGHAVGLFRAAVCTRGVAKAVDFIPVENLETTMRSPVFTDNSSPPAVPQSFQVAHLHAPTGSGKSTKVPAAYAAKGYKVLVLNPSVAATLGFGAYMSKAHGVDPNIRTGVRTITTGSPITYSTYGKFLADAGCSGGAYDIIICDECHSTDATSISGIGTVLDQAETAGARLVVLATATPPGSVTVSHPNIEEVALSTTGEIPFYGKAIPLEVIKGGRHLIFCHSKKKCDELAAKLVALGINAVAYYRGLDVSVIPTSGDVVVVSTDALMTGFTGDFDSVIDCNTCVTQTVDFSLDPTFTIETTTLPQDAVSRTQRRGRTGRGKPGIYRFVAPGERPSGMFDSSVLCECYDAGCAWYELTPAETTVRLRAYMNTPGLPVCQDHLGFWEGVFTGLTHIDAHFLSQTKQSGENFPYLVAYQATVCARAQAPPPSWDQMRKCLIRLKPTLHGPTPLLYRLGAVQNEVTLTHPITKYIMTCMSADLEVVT
Serum from an HCV-infected patient was obtained from Dr. T. Wright, San Francisco Hospital. […]
In order to monitor HCV NS3/4A protease activity, an NS3/4A peptide substrate was used. […] The peptide also contains a fluorescence donor, EDANS, near one end of the peptide and an acceptor, DABCYL, near the other end. The fluorescence of the peptide is quenched by […] resonance energy transfer (RET) between the donor and the acceptor, but as the NS3 protease cleaves the peptide the products are released from RET quenching and the fluorescence of the donor becomes apparent.
The peptide substrate was incubated with one of the three recombinant NS3/4A protease complexes, in the absence or presence of a compound of the present disclosure. The inhibitory effects of a compound were determined by monitoring the formation of fluorescent reaction product in real time using a Cytofluor Series 4000. […]

The target of assay [2] is T1, human neutrophil elastase (HNE) (Homo sapiens, UniProt P08246).
T1 sequence (P08246 30-267): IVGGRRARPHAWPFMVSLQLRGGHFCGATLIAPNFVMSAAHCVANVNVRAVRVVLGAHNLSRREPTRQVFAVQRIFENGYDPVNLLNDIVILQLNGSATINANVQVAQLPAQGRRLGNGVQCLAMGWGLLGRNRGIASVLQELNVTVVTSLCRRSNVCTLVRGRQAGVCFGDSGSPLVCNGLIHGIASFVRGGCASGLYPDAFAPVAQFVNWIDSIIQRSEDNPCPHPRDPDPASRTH
The assay can be described thus: Specificity assay, human neutrophil elastase. The class given is biochemical. The conditions noted are these: read-out: HLE activity in the specificity assays. The procedure:
The specificities of compounds of the present disclosure were determined against a variety of serine proteases: human neutrophil elastase (HNE), porcine pancreatic elastase (PPE) and human pancreatic chymotrypsin and one cysteine protease: human liver cathepsin B. In all cases a 96-well plate format protocol using a fluorometric Amino-Methyl-Coumarin (AMC) substrate specific for each enzyme was used as described previously (PCT Patent Application No. WO 00/09543) with some modifications to the serine protease assays. All enzymes were purchased from Sigma, EMDbiosciences while the substrates were from Bachem, Sigma and EMDbiosciences.
Compound concentrations varied from 100 to 0.4 μM depending on their potency. The enzyme assays were each initiated by addition of substrate to enzyme-inhibitor pre-incubated for 10 min at room temperature and hydrolysis to 15% conversion as measured on cytofluor. […]
The percentage of inhibition was calculated using the formula: […]

For `COc1ccc2c(O[C@@H]3C[C@H]4C(=O)N[C@]5(C(=O)NS(=O)(=O)C6CC6)C[C@H]5/C=C\CCCCC[C@H](Nc5ccc(OC)nc5)C(=O)N4C3)nccc2c1` (single isomer, unassigned) [Compound 1], the IC50 in assay [1] was found to be 0.0087 µM; in assay [2] it was 1.5 µM.
